According to paper PMC6342617 (Cancer chemotherapy and pharmacology, 2018):

Legend:
[1] = Tivantinib steady-state plasma pharmacokinetics; format: in vivo, human
[2] = system: germ cell tumors; details: patients with germ cell tumors; cited from earlier work
[3] = system: hepatocellular carcinoma; details: patients with hepatocellular carcinoma; cited from earlier work
[4] = system: triple-negative breast cancer; details: patients with triple-negative breast cancer; cited from earlier work
[5] = system: gastric cancer; details: patients with gastric cancer; cited from earlier work
[6] = system: substrates of CYP1A, CYP2C9, CYP2C19, CYP3A4 or P-glycoprotein; details: cited from earlier work
[7] = phase I dose escalation study; cited from earlier work
[8] = system: cytochrome P450 enzymes; details: ref Hycamtin® prescribing information; cited from earlier work

Structure (SMILES): O=C1NC(=O)[C@@H](c2cn3c4c(cccc24)CCC3)[C@@H]1c1c[nH]c2ccccc12 [tivantinib]
- AUC0–8 hr ([1]; Dose Level 1 (tivantinib 240 mg), n=1): 7,243 ng × hr/ml
- Clsys (oral clearance), range of observed values ([1]; Dose Levels −1 and A1 (tivantinib 120 mg), n=11): 2.4 to 44.5 L/h
- AUC(0-t) ([1]; human, plasma, oral, AUC0–12 hr, median, All Dose Levels, n=12): 10500 ng·h/mL
- Responses, monotherapy [2]: No responses were seen
- Responses, monotherapy [3]: No responses were seen
- Response rate, monotherapy [4]: 5%
- Responses, monotherapy [5]: No responses were seen
- Interaction with substrates of CYP1A, CYP2C9, CYP2C19, CYP3A4 or P-glycoprotein [6]: has not been shown to have a significant interaction
- Maximum tolerated dose, single agent [7]: no maximum tolerated dose was identified

Structure (SMILES): CC[C@@]1(O)C(=O)OCc2c1cc1n(c2=O)Cc2cc3c(CN(C)C)c(O)ccc3nc2-1 [topotecan]
- Induction or inhibition of cytochrome P450 enzymes [8]: has not been shown to induce or inhibit cytochrome P450 enzymes
